# Data as given in patent publication US12180187B2, “1-phenyl-5-azinylpyrazolyl-3-oxyalkyl acids and their use for controlling unwanted plant growth” (BAYER AKTIENGESELLSCHAFT, priority 2019, dated 2024).
# Key:
# [1] = system: ALOMY; assay: Pre-emergence action against ALOMY, 1280 g/ha; assay type: in vivo, Alopecurus myosuroides; settings: visual scoring after about 3 weeks vs untreated controls, 100% = plants have died, 0% = like control plants
# How it was run: (§1)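 Soil-surface application after sowing, before emergence: WP or EC formulations in water with 0.5% additive, 600 litres per hectare, onto sandy loam pots. Damage rated visually in % relative to untreated plants after roughly 3 weeks in a greenhouse.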
# [2] = system: DIGSA; assay: Pre-emergence action against DIGSA, 1280 g/ha; assay type: in vivo, Digitaria sanguinalis; settings: visual scoring after about 3 weeks vs untreated controls, 100% = plants have died, 0% = like control plants
# How it was run: as §1
# [3] = system: ECHCG; assay: Pre-emergence action against ECHCG, 1280 g/ha; assay type: in vivo, Echinochloa crus-galli; settings: visual scoring after about 3 weeks vs untreated controls, 100% = plants have died, 0% = like control plants
# How it was run: as §1
# [4] = system: LOLRI; assay: Pre-emergence action against LOLRI, 1280 g/ha; assay type: in vivo, Lolium rigidum; settings: visual scoring after about 3 weeks vs untreated controls, 100% = plants have died, 0% = like control plants
# How it was run: as §1
# [5] = system: POAAN; assay: Pre-emergence action against POAAN, 1280 g/ha; assay type: in vivo, Poa annua; settings: visual scoring after about 3 weeks vs untreated controls, 100% = plants have died, 0% = like control plants
# How it was run: as §1
# [6] = system: SETVI; assay: Pre-emergence action against SETVI, 1280 g/ha; assay type: in vivo, Setaria viridis; settings: visual scoring after about 3 weeks vs untreated controls, 100% = plants have died, 0% = like control plants
# How it was run: as §1
# [7] = system: ABUTH; assay: Pre-emergence action against ABUTH, 1280 g/ha; assay type: in vivo, Abutilon theophrasti; settings: scored visually after about 3 weeks vs untreated controls (100% = plants have died)
# From the text: 1. Pre-Emergence Herbicidal Effect and Crop Plant Compatibility a) Seeds of mono- and dicotyledonous weed plants are placed in plastic pots in sandy loam soil (doubly sown with one species each of mono- or dicotyledonous weed plants per pot) and covered with soil. The compounds of the invention, formulated in the form of wettable powders (WP) or as emulsion concentrates (EC), are then applied onto the surface of the covering soil as aqueous suspension or emulsion with addition of 0.5% additive at a water application rate equivalent to 600 litres per hectare. After the treatment, the pots are placed in a greenhouse and kept under good growth conditions for the trial plants. After about 3 weeks, the effect of the preparations is scored visually in comparison with untreated controls as percentages. For example, 100% activity=the plants have died, 0% activity=like control plants. 1. Pre-Emergence Effectiveness Tables 1 to 12 below show the effects of selected compounds of the general formula (I) according to Tables 1 and 2 on various harmful plants and at an application rate corresponding to 1280 g/ha, which were obtained by the experimental procedure mentioned above.
# [8] = system: AMARE; assay: Pre-emergence action against AMARE, 1280 g/ha; assay type: in vivo, Amaranthus retroflexus; settings: scored visually after about 3 weeks vs untreated controls (100% = plants have died)
# How it was run: as §1
# [9] = system: KCHSC; assay: Pre-emergence action against KCHSC, 1280 g/ha; assay type: in vivo, Bassia scoparia; settings: scored visually after about 3 weeks vs untreated controls (100% = plants have died)
# How it was run: as §1
# [10] = system: MATIN; assay: Pre-emergence action against MATIN, 1280 g/ha; assay type: in vivo, Tripleurospermum inodorum (Matricaria inodora); settings: scored visually after about 3 weeks vs untreated controls (100% = plants have died)
# How it was run: as §1
# [11] = system: STEME; assay: Pre-emergence action against STEME, 1280 g/ha; assay type: in vivo, Stellaria media; settings: scored visually after about 3 weeks vs untreated controls (100% = plants have died)
# How it was run: as §1
# [12] = system: VERPE; assay: Pre-emergence action against VERPE, 1280 g/ha; assay type: in vivo, Veronica persica; settings: scored visually after about 3 weeks vs untreated controls (100% = plants have died)
# How it was run: as §1
# [13] = system: ALOMY; assay: Post-emergence action against ALOMY, 1.28 kg/ha; assay type: in vivo, Alopecurus myosuroides; settings: dosage 1280 g/ha, visual rating about 3 weeks after treatment vs untreated controls
# How it was run: (§2)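 Greenhouse pot test, sandy loam; weeds sprayed post-emergence at one-leaf stage (2–3 weeks after sowing) with WP or EC formulation plus 0.5% additive, 600 l/ha water. Visual rating after about 3 weeks versus untreated controls, 100% = plants dead, 0% = like control.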
# [14] = system: DIGSA; assay: Post-emergence action against DIGSA, 1.28 kg/ha; assay type: in vivo, Digitaria sanguinalis; settings: dosage 1280 g/ha, visual rating about 3 weeks after treatment vs untreated controls
# How it was run: as §2
# [15] = system: ECHCG; assay: Post-emergence action against ECHCG, 1.28 kg/ha; assay type: in vivo, Echinochloa crus-galli; settings: dosage 1280 g/ha, visual rating about 3 weeks after treatment vs untreated controls
# How it was run: as §2
# [16] = system: POAAN; assay: Post-emergence action against POAAN, 1.28 kg/ha; assay type: in vivo, Poa annua; settings: dosage 1280 g/ha, visual rating about 3 weeks after treatment vs untreated controls
# How it was run: as §2
# [17] = system: SETVI; assay: Post-emergence action against SETVI, 1.28 kg/ha; assay type: in vivo, Setaria viridis; settings: dosage 1280 g/ha, visual rating about 3 weeks after treatment vs untreated controls
# How it was run: as §2
# [18] = system: ABUTH; assay: Post-emergence action against ABUTH, 1.28 kg/ha; assay type: in vivo, Abutilon theophrasti; settings: dosage 1280 g/ha, visual rating about 3 weeks after treatment vs untreated controls (100% = plants died)
# How it was run: as §2
# [19] = system: AMARE; assay: Post-emergence action against AMARE, 1.28 kg/ha; assay type: in vivo, Amaranthus retroflexus; settings: dosage 1280 g/ha, visual rating about 3 weeks after treatment vs untreated controls (100% = plants died)
# How it was run: as §2
# [20] = system: KCHSC; assay: Post-emergence action against KCHSC, 1.28 kg/ha; assay type: in vivo, Bassia scoparia; settings: dosage 1280 g/ha, visual rating about 3 weeks after treatment vs untreated controls (100% = plants died)
# How it was run: as §2
# [21] = system: MATIN; assay: Post-emergence action against MATIN, 1.28 kg/ha; assay type: in vivo, Tripleurospermum inodorum (Matricaria inodora); settings: dosage 1280 g/ha, visual rating about 3 weeks after treatment vs untreated controls (100% = plants died)
# How it was run: as §2
# [22] = system: STEME; assay: Post-emergence action against STEME, 1.28 kg/ha; assay type: in vivo, Stellaria media; settings: dosage 1280 g/ha, visual rating about 3 weeks after treatment vs untreated controls (100% = plants died)
# How it was run: as §2
# [23] = system: VERPE; assay: Post-emergence action against VERPE, 1.28 kg/ha; assay type: in vivo, Veronica persica; settings: dosage 1280 g/ha, visual rating about 3 weeks after treatment vs untreated controls (100% = plants died)
# How it was run: as §2
SMILES,Pre-emergence action against DIGSA [2] [%],Pre-emergence action against ECHCG [3] [%],Pre-emergence action against LOLRI [4] [%],Pre-emergence action against POAAN [5] [%],Pre-emergence action against SETVI [6] [%],Pre-emergence action against ABUTH [7] [%],Pre-emergence action against AMARE [8] [%],Pre-emergence action against KCHSC [9] [%],Pre-emergence action against MATIN [10] [%],Pre-emergence action against STEME [11] [%],Pre-emergence action against VERPE [12] [%],Post-emergence action against DIGSA [14] [%],Post-emergence action against ECHCG [15] [%],Post-emergence action against ABUTH [18] [%],Post-emergence action against KCHSC [20] [%],Post-emergence action against MATIN [21] [%],Post-emergence action against STEME [22] [%],Post-emergence action against VERPE [23] [%],also measured
O=C(O)C1CCCN1C(=O)COc1nn(-c2ccccc2F)c(-c2cncc(F)c2)c1Br (centres unmarked) [Example X-039],90,90,90,100,90,90,100,100,100,90,100,90,90,100,90,100,100,100,Pre-emergence action against ALOMY [1]: 90%; Post-emergence action against ALOMY [13]: 90%; Post-emergence action against POAAN [16]: 100%; Post-emergence action against SETVI [17]: 100%; Post-emergence action against AMARE [19]: 90%
C=CCNC(=O)COc1nn(-c2ccccc2F)c(-c2cncnc2)c1Br [IX-001],100,90,100,100,100,100,100,100,100,100,100,100,90,90,90,90,100,100,
